Two compounds from the NIST ThermoML archive (doi:10.1016/j.tca.2011.07.006) can be followed below.

Numbers after ± are expanded uncertainties.

The nature of series [1]: Molar enthalpy of transition or fusion. The settings on record: Crystal; DSC.
The conditions of series [2]: Crystal; DTA.

`CCn1cc[n+](C)c1.[Cl-].[Cl][Al]([Cl])[Cl]` [1-ethyl-3-methyl-1H-imidazolium tetrachloroaluminate]: the “Molar enthalpy of transition or fusion” value in series [1] worked out at 3.3 ± 0.167 kcal/mol. Moreover, the Normal melting temperature in series [2] was found to be 6.5 ± 0.5 °C.
The matching figures for `CCn1cc[n+](C)c1.[Cl-]` [1-ethyl-3-methylimidazolium chloride]: 3.61 ± 0.311 kcal/mol and 97.0 ± 0.5 °C.
